Values quoted from earlier work, collected in US7491718B2, “Sulfonamides having antiangiogenic and anticancer activity” (Abbott Laboratories, priority 2002, dated 2009).

Target: type 2-methionine aminopeptidase (MetAP-2) (Homo sapiens, UniProt P50579)
Conditions: reported in Proc. Natl. Acad. Sci. USA 94: 6099-6103 (1997) and Chemistry and Biology, 4(6): 461-471 (1997)

Chain of type 2-methionine aminopeptidase (MetAP-2) (P50579 whole entry, species assumed): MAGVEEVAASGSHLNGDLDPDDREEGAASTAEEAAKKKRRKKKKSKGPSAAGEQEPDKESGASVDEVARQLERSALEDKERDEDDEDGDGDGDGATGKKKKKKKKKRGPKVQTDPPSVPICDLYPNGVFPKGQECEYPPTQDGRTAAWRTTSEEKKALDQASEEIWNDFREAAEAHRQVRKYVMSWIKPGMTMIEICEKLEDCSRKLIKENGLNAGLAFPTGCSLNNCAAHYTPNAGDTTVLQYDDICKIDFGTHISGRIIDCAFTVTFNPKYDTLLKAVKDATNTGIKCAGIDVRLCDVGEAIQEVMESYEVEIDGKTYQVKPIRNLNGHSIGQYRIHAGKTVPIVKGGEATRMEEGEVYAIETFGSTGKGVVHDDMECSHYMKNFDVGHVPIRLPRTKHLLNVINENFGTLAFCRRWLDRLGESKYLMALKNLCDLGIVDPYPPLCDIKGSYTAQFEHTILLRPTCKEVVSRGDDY

CO[C@@H]1[C@H](OC(=O)NC(=O)CCl)CC[C@]2(CO2)[C@H]1[C@@]1(C)O[C@@H]1CC=C(C)C [AGM-1470]
binding to MetAP-2: bind
